Values of other authors as cited in US11504411B1, “Herbal dietary supplement supporting healthy immune function” (Progressing Bodies, Inc., priority 2021, dated 2022).

What was measured:
norovirus = conditions: over the course of less than one hour
herpes simplex virus = conditions: within just one hour

| SMILES | singlet oxygen quenching strength relative to CoQ10 (versus CoQ10) [times] | singlet oxygen quenching strength relative to green tea catechins (versus green tea catechins) [times] | singlet oxygen quenching strength relative to vitamin C (versus vitamin C) | inactivation of norovirus (norovirus) | herpes simplex virus inactivated (herpes simplex virus) [%] |
| --- | --- | --- | --- | --- | --- |
| CC1=C(/C=C/C(C)=C/C=C/C(C)=C/C=C/C=C(C)/C=C/C=C(C)/C=C/C2=C(C)C(=O)[C@@H](O)CC2(C)C)C(C)(C)C[C@H](O)C1=O [astaxanthin] | 800 | 550 | 6,000 times | – | – |
| Cc1ccc(C(C)C)cc1O [carvacrol] | – | – | – | inactivated norovirus | 90 |
| Cc1ccc(C(C)C)c(O)c1 [thymol] | – | – | – | – | 90 |
